# From patent publication US11485728B2, “Small molecules for the treatment of autoimmune diseases and cancer” (Athos Therapeutics, Inc., priority 2020, dated 2022)
# Assays:
# [1] = In-vitro half-life in human liver microsomes; type: in vitro ADME; details: Human liver microsomes 0.5 mg/mL; 1 μg/mL drug; NRS; read-out: Metabolic Half-life
# Method: (§1) In each of the species (human, rat, mouse) of liver matrix to be tested, a working concentration of 2 μg/mL was prepared of each test article from the 0.5 mg/mL DMSO stock solution by adding 3 μL of 0.5 mg/mL test article stock solution to 747 μL of the 1 mg/mL liver matrix. Incubation was performed at 37±2° C. with gentle, continuous mixing in shaking water bath in 2.0 mL-well capacity 96-Deepwell plates (96-DWP). Samples were retrieved in duplicate at the following time points: 0, 5, 10, 15, 30 and 60 minutes. The final mixture contained 1 μg/mL of drug and 0.5 mg/mL of liver matrix. First, 50 μL of test articles in liver matrix was added to the 96-DWP and pre-warmed the mixture in the 96-DWP for 2 minutes in the 37° C. water bath. The enzymatic reaction was started by the addition of 50 μL of the corresponding 2× NADPH regenerating system (NRS) cofactor solution to all sample wells and stopped by the addition of 300 μL of stop solution (acetonitrile containing 10 ng/mL Tolbutamide as an internal standard (I.Std.). The samples were agitated for 10 minutes and then centrifuged for 20 minutes at 4500 rpm. 25 μL of supernatant was diluted with 475 μL acetonitrile containing I. Std. into a new 96-DWPs for LC-MS/MS analysis.
# (§2) Half-life calculations were generated and calculated by Graphpad Prism® software. The half-life of test compound was calculated based on the first-order reaction kinetics. The data was transformed to linear regression (y=log(y) where “y” axis represents the % compound remaining at any given time with respect to time 0 minutes; “x” axis represents time in minutes) in order to calculate the half-life.
# (§3) A comparison of metabolic stability in time-course incubation experiments in varying species of liver can provide information of pharmacokinetic properties of drugs attributable to species-related differences in hepatic metabolism. The results of these experiments often assist in further applications such as assessing in vitro metabolite profiling and choosing relevant species for toxicology studies based on similarities relative to the metabolic stability to the human profile. For these experiments, the test compound was tested in parallel with a positive control, Dasatinab, in an enzymatic reaction solution of each species (human and rat) of liver microsomes containing a NADPH regenerating system (NRS). The final mixture contained 1 μg/mL of drug and 0.5 mg/mL of liver matrix. Incubations were performed at 37±2° C. with gentle, continuous mixing in shaking water bath in 96-Deep well plates. The stability of the test compound is monitored using fast, specific and sensitive LC/MS/MS analysis.
# [2] = Formulation visual stability (DMA/PG/PEG 300/water); type: physicochemical; details: 25° C., 10-11 mg/mL in DMA/PG/PEG 300/Water
# Method: All formulations were conducted with FDA approved excipients and with high purity material such as USP grade quality. Formulation stability of test articles are performed using HPLC purity method described within analytical section. This formula may be used for oral administration of the compounds described herein; […]. Since these compounds have high solubility in lower pH as described in the solubility study section, the intervenous delivery is performed with 100% phosphate buffer solution of pH 6.5 allowing up to 7 mg/mL concentration. The formulated test articles can be store at 4° C. Prior to dosing, it should be warmed and vortexed for about 1 min to make a homogenous solution. If needed, filter through 0.2 μM syringe filter to maintain clean and sterile.
# [3] = system: HT-29 colorectal cancer cells; experiment: HT-29 cell viability (Real-Time-Glo); type: cell-based; details: Homo sapiens, HT-29; 72 hr; read-out: IC50, Cell line: HT-29
# Method: Equal volume of 2× RealTime-Glo™ reagent (2 μl of MT Cell Viability Substrate 1,000×, and 2 μl of NanoLuc® Enzyme 1,000×, per 1 ml of media, Promega) was added to each well and cells were incubated at 37° C. Luminescence was evaluated at 72 h.
# (§4) To determine the plating density for cell viability assays, for each cell line, cells were counted and diluted to final densities of 2.5, 5, 10 and 20 thousand per 100 μl of their respective growth media per well in 96 well plates. A Promega Real-Time-Glo cell viability kit was used to determine the optimal concentration for cell plating so that each cell line would be within the linear part of its growth curve after 72 hrs in culture. […] Test compounds were then added at different concentrations for the creation of six-point curve and cell density was determined using the Promega Real-Time-Glo cell viability kit after 24, 48, and 72 hrs in culture.
# Specifically, the Promega Real-Time-Glo cell viability kit was used to determine the optimal concentration for cell plating so that each cell line would be within the linear part of its growth curve after 72 hrs in culture. […] Test compounds are then added at different concentrations for the creation of six-point curve and cell density is determined using the Promega Real-Time-Glo cell viability kit after 24, 48, and 72 hrs in culture. […]
# PAMPA permeability = details: PAMPA, 5 hours at RT
# From the text: Parallel artificial membrane permeability (PAMPA) assay is a non-cell based assay designed to predict in vivo biological membrane permeability of drugs in early stage of drug discovery. […] The Corning Gentest Pre-coated PAMPA plate system was designed by 96-well insert system with a 0.45 μm PVDF (polyvinylidene fluoride) filter plate which has been pre-coated with structured tri-layers of phospholipids (lipid/oil/lipid) and a matched receiver microplate.
# Donor solutions of test compounds (300 μL, 20 μM in PBS/MeOH 90:10) were added to each well of the donor plate. 200 μL of PBS/MeOH 90:10 was added to each well of the acceptor plate. The acceptor plate was coupled with the donor plate and incubated for 5 hours at room temperature (RT) without agitation. In each plate, compounds were tested in triplicate. At the end of the incubation, drug concentration in the initial donor solution, acceptor and the donor wells were determined using LC/MS/MS. A five (5) points standard curve from 0.1 to 1000 nM for each test compound were prepared. Analyte samples were diluted to within standard curve concentration with ACN/H2O 50:50 prior analysis.
# All samples were analyzed by electrospray ionization (ESI) liquid chromatograph/mass spectrometry (LC/MS) system utilizing Sciex 5500 quadropule ion trap (Qtrap) mass spectrometry with Shidmazu Nexera X2 UHPLC. The LC-MS/MS instrument monitored each of the test compound in the study based of their respective mass-to-charge (m/z) transitions and MS parameters. Chromatographic separation was achieved on Phenomenex Luna C18 column (50×2.0 mm, 3 μm particle size) by using a gradient elution: mobile phase A contains 0.1% formic acid in water and mobile phase B contains 0.1% formic acid in acetonitrile; A/B (99:1) from 0 to 1 minutes; to A/B (1:99) from 1 to 4 minutes; A/B (1:99) from 4 to 8 minutes; to A/B (99:1) from 8 to 8.20 minutes; A/B (99:1) from 8.2 to 9 minutes. The flow rate was 0.4 mL/min and the column temperature was maintained at 35° C. and autosampler temperature at 4° C. For detection, the electrospray ionization operated in the positive mode using multiple reaction monitoring (MRM).
# Data acquisition, and peak integrations were obtained by Analyst® Version 1.7.1 (Sciex) operating with Windows® (Microsoft). The standard curve regressions and sample concentrations were generated and calculated by Analyst®. Concentrations in the sample solutions were determined based on the measured peak area ratios from the response of the analyte to the internal standard with reference to the standard calibration curve. All sample calculations were calculated using a linear regression with 1/x^2 weighting (where x is the concentration of given calibration standard level).
# Permeability of the test compounds was calculated using the following formula:
# The permeability of compounds was evaluated with the parallel artificial membrane permeation assay (PAMPA) as an in vivo model of passive diffusion across a porous filter coated with a lipid/oil/lipid tri-layer artificial membrane. […] Donor solutions of test compounds (300 μL, 20 μM in PBS/MeOH 90:10) were added to each well of the donor plate. 200 μL of PBS/MeOH 90:10 was added to each well of the acceptor plate. The acceptor plate was coupled with the donor plate and incubated for 5 hours at room temperature (RT) without agitation. In each plate, compounds were tested in triplicate. At the end of the incubation, drug concentration in the initial donor solution, acceptor and the donor wells were determined using LC/MS/MS. Permeability of test compounds was calculated based on the formula described in the General Procedures above. The PAMPA permeability classification criteria are categorized into three (3) classes with a high (Pe≥1.5×10−6 cm/s), intermediate (5.5×10−8<Pe<1.5×10−6 cm/s), and low (Pe<5.5×10−8 cm/s) permeability.
# [4] = In-vitro half-life in rat liver microsomes; type: in vitro ADME; details: Rat liver microsomes 0.5 mg/mL; 1 μg/mL drug; NRS; read-out: Metabolic Half-life
# Method: as §1, §2, §3
# [5] = In-vitro half-life in mouse liver microsomes; type: in vitro ADME; details: Mouse liver microsomes 0.5 mg/mL; 1 μg/mL drug; NRS; read-out: Metabolic Half-life
# Method: as §1, §2, §3
# HCT-116 = HCT-116 cell viability (Real-Time-Glo); type: cell-based; details: Homo sapiens, 72 hr, read-out: IC50, Cell line: HCT-116
# Method: as §4
# [6] = cited from earlier work
# mouse = details: oral; cited from earlier work
smiles,measurement,setting,value
"COc1cc2c(NC3CCN(C4CCCCC4)CC3)nc(N3CCCN(C(C)C)CC3)nc2cc1OCCCN1CCCCC1 [Compound 402, reference compound]",half-life at 1 μg/mL,[1],> 1 h
same,Appearance,[2]; 30 min,clear
same,Appearance,[2]; 1 h,clear
same,Appearance,[2]; 5 h,clear
same,Appearance,[2]; 24 h,clear
same,Appearance,[2]; 7 d,clear
same,IC50,[3],10 to 20 µM
same,"Papp at 5 h, 20 μM","PAMPA permeability; PAMPA permeability Classification, 20 μM donor",< 0.055 ×10⁻⁶ cm/s
same,"Papp at 5 h, 20 μM","PAMPA permeability; Permeability, Pe, 20 μM donor in PBS/MeOH 90:10",0.00971 ×10⁻⁶ cm/s
same,half-life at 1 μg/mL,[4],> 1 h
same,half-life at 1 μg/mL,[5],> 1 h
same,IC50,HCT-116,5 to 10 µM
O=C(O)Cc1ccccc1Nc1c(Cl)cccc1Cl [Diclofenac],permeability of positive control (published),[6],high permeability
"CC(O)CO (centres unmarked) [PG, propylene glycol]",LD50,mouse,22000 mg/kg
